System: SEM cells
Experiment: cell viability relative to DMSO control; higher = less cytotoxic
Details: 48 h
How it was run: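 Before seeding, each leukemia line was adapted for at least four passages in each medium. NOMO1 or SEM cells (500 cells/well) and P12-Ichikawa cells (1000 cells/well) went into 1536-well plates at 5 μl, then received library compounds in DMSO by pin dosing across 11 threefold concentrations, 47 μM to 0.79 nM. Readout was CellTiter-Glo One luminescence after 48 h at 37°C, and viability is given as a per-plate percentage of DMSO wells, with cell-free wells as background.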

[1] = HPLM + 10% dialyzed FBS, 0.000781 µM
[2] = HPLM + 10% dialyzed FBS, 0.00234 µM
[3] = HPLM + 10% dialyzed FBS, 0.00702 µM
[4] = HPLM + 10% dialyzed FBS, 0.0211 µM
[5] = HPLM + 10% dialyzed FBS, 0.0632 µM
[6] = HPLM + 10% dialyzed FBS, 0.19 µM
[7] = HPLM + 10% dialyzed FBS, 0.569 µM
[8] = HPLM + 10% dialyzed FBS, 1.71 µM
[9] = HPLM + 10% dialyzed FBS, 5.12 µM
[10] = HPLM + 10% dialyzed FBS, 15.4 µM
[11] = HPLM + 10% dialyzed FBS, 46.1 µM
[12] = RPMI 5 mM glucose + 10% FBS, 0.000781 µM
[13] = RPMI 5 mM glucose + 10% FBS, 0.00234 µM
[14] = RPMI 5 mM glucose + 10% FBS, 0.00702 µM
[15] = RPMI 5 mM glucose + 10% FBS, 0.0211 µM
[16] = RPMI 5 mM glucose + 10% FBS, 0.0632 µM
[17] = RPMI 5 mM glucose + 10% FBS, 0.19 µM
[18] = RPMI 5 mM glucose + 10% FBS, 0.569 µM
[19] = RPMI 5 mM glucose + 10% FBS, 1.71 µM
[20] = RPMI 5 mM glucose + 10% FBS, 5.12 µM
[21] = RPMI 5 mM glucose + 10% FBS, 15.4 µM
[22] = RPMI 5 mM glucose + 10% FBS, 46.1 µM
[23] = RPMI 5 mM glucose + 10% dialyzed FBS, 0.000781 µM
[24] = RPMI 5 mM glucose + 10% dialyzed FBS, 0.00234 µM
[25] = RPMI 5 mM glucose + 10% dialyzed FBS, 0.00702 µM
[26] = RPMI 5 mM glucose + 10% dialyzed FBS, 0.0211 µM
[27] = RPMI 5 mM glucose + 10% dialyzed FBS, 0.0632 µM
[28] = RPMI 5 mM glucose + 10% dialyzed FBS, 0.19 µM
[29] = RPMI 5 mM glucose + 10% dialyzed FBS, 0.569 µM
[30] = RPMI 5 mM glucose + 10% dialyzed FBS, 1.71 µM
[31] = RPMI 5 mM glucose + 10% dialyzed FBS, 5.12 µM
[32] = RPMI 5 mM glucose + 10% dialyzed FBS, 15.4 µM
[33] = RPMI 5 mM glucose + 10% dialyzed FBS, 46.1 µM

Structure (SMILES)	cell viability [1] [%]	cell viability [2] [%]	cell viability [3] [%]	cell viability [4] [%]	cell viability [5] [%]	cell viability [6] [%]	cell viability [7] [%]	cell viability [8] [%]	cell viability [9] [%]	cell viability [10] [%]	cell viability [11] [%]	cell viability [12] [%]	cell viability [13] [%]	cell viability [14] [%]	cell viability [15] [%]	cell viability [16] [%]	cell viability [17] [%]	cell viability [18] [%]	cell viability [19] [%]	cell viability [20] [%]	cell viability [21] [%]	cell viability [22] [%]	cell viability [23] [%]	cell viability [24] [%]	cell viability [25] [%]	cell viability [26] [%]	cell viability [27] [%]	cell viability [28] [%]	cell viability [29] [%]	cell viability [30] [%]	cell viability [31] [%]	cell viability [32] [%]	cell viability [33] [%]
CCOc1ccc(Cc2cc([C@@H]3O[C@H](CO)[C@@H](O)[C@H](O)[C@H]3O)ccc2Cl)cc1	113	108	120	107	126	125	117	121	115	128	113	102	110	110	89.5	106	124	112	121	121	115	118	116	104	128	85.6	117	124	129	122	119	117	105
O=[S+]([O-])(c1cccc2cnccc12)N1CCCNCC1	103	104	121	120	121	127	138	113	117	127	115	123	115	130	121	151	146	133	143	139	148	54.9	110	108	123	135	145	136	138	172	145	146	93.3
CC1(C)C(N(O)C(=O)Nc2ccc(Cl)cc2)N(c2ccc(Cl)cc2)C(=O)N1CC(=O)N/N=C/C=C/c1ccc([N+](=O)[O-])o1 (stereo not drawn)	128	117	120	119	122	81.4	110	117	52.7	107	3.81												114	115	111	113	121	91.6	104	99.1	30.9	80.8	2.64
Cc1onc(-c2ccccc2)c1C(=O)N[C@@H]1C(=O)N2[C@@H]1SC(C)(C)[C@@H]2C(=O)[O-].[Na+]	85.9	75.7	87.2	84	86.5	75.3	89.6	93.4	85.2	82.1	80.2	109	94.2	105	114	108	109	114	86.4	102	132	103	115	104	111	113	133	112	118	107	111	108	100
CC(C)(O)/C=C\C(=O)[C@](C)(O)[C@H]1[C@H](O)C[C@]2(C)[C@@H]3CC=C4[C@@H](C=C(O)C(=O)C4(C)C)[C@]3(C)C(=O)C[C@@]12C	92.4	91.3	119	100	51.8	24	24	21.7	20.4	6.86	4.91	97.5	85.7	109	101	35	15.8	13.7	11	11.9	6.54	5.36	104	78.7	103	108	55.6	17.5	14.2	12.8	12.5	6.59	5.46
OCc1ccc(-c2ccc(-c3ccc(CO)s3)o2)s1	117	118	94.3	115	107	103	104	103	88.6	77.7	93.8	87.3	105	83.8	81.5	79.1	87.8	79.3	80.6	77.1	61.3	66.7	114	124	95.7	113	119	105	110	99.4	83.9	85.8	114
COc1cc(/C=C/C(=O)O)ccc1O	80.5	92.9	64.5	93.6	92.8	90.1	91.9	106	44.8	89.9	100	94.1	89	62.1	84.1	99.5	94.9	101	101	37.5	88.4	98.1	93.4	99.2	68.6	110	115	106	109	104	46	105	106
COc1ncc(-c2ccc3c(Nc4cc(Oc5cc(F)cc(F)c5)cc(C(=O)O)c4)c([S+](=O)([O-])NC4CC4)cnc3c2)c(OC)n1	90.4	78.2	77.5	86	85.2	79.4	88.1	82.2	75.5	78	71.5	135	107	117	133	130	119	138	100	109	119	113	102	83.5	79.7	88.6	85	89.7	97.5	75.4	82.1	104	67.9
Nc1ncnc2c1c(-c1cccc(OCc3ccccc3)c1)cn2C1CC(CN2CCCC2)C1 (stereo not drawn)	97.6	112	120	108	113	111	89.8	83.1	63.8	45.4	29.6	89.4	113	125	115	128	121	103	95.3	87.8	54.8	31.5											
COc1cccc2c1[C@]13CCN(CC4CC4)[C@H](C2)[C@]1(OC)CCC(=O)C3	71.3	90.6	20	108	106	105	107	109	116	120	111	89.4	123	8.7	113	116	107	97	113	122	98.4	110	81.2	108	18.8	99.8	105	106	84.6	97.4	93.3	95.6	80.7
C[C@]12CCC\3=C\4CCC(=O)\C=C4CC[C@H]3[C@@H]1CC[C@@]2(O)CC#N	97.2	103	123	97	124	118	121	144	137	132	115	117	124	116	88.3	143	116	138	130	146	139	128											
Nc1ncnc2c1nc(Cl)n2[C@@H]1O[C@H](CO)[C@@H](O)[C@H]1O	118	128	123	125	119	128	115	128	97.3	41.6	7.3	120	130	123	135	136	135	119	130	109	55	8.37											
Cc1c[nH]c(-c2cnc(NCCNc3ccc(C#N)cn3)nc2-c2ccc(Cl)cc2Cl)n1	62.7	74.5	62	65.9	65.2	70.5	45.3	71.5	19.6	26.8	2.9	74.9	93.6	70.9	87.6	85.2	101	66.9	86.4	34.9	68.8	4.99	70.2	80.9	59.9	67	69.6	72.2	52.9	84	24	33.7	3.76
C[C@H]1O[C@H](C[C@H](O)[C@@H]1O)O[C@H]2[C@@H](O)C[C@@H](O[C@@H]2C)O[C@H]3[C@@H](O)C[C@@H](O[C@@H]3C)O[C@H]4CC[C@@]5(C)[C@H](CC[C@@H]6[C@@H]5C[C@@H](O)[C@]7(C)[C@H](CC[C@]67O)C/8=C/C(=O)OC8)C4	117	106	122	123	30.4	15.2	11	7.74	7.71	8.32	6.4																						
N#C/C(C(=O)c1ccc(Cl)cc1Cl)=C1/NC(=O)c2ccc(Cl)cc2N1	124	132	124	125	129	121	123	112	110	117	111												99.5	125	131	126	127	108	111	137	79.5	105	108

From the supplement of paper PMC11451515
